Results as given in patent US20160228387A1, “SOLUBILIZED FORMULATION OF COQ10 FOR USE IN TREATMENT OF PARKINSON'S DISEASE” (NATIONAL RESEARCH COUNCIL OF CANADA (NRC), priority 2013, published 2016).
Values joined by “and” are separate entries in the source; they are usually repeats but may differ in a detail not shown here. Identical values can stand only once.

Assays:
[1] = Dispersion and stability in water; format: physicochemical; conditions: added to water
Excerpt: Based on the chemical structure, a-tocopherol constitutes 35.6% or one-third of the PTS molecule (Borowy-Borowski et al., 2004).

PD patients = conditions: clinical trials in humans; cited from earlier work
striatal dopamine = assay: Striatal dopamine content in MPTP-treated mice
Method: (§1) To induce the dopaminergic neurodegeneration, male C57BL/6 mice were acclimatized to the new environment for 7 days before the start of the experiment. Animals were randomly divided into experimental groups and given 5 daily injections of MPTP (25 mg/kg/injection). Control mice were injected with saline. On days 5, 8, 14, 28, and 45 after the MPTP injections, mice were sacrificed and brain tissue was collected for immunohistochemistry, stereology, and biochemical analyses. Brains were fixed and immunostained with rabbit polyclonal anti-tyrosine hydroxylase antibody (brown) and counterstained with cresyl violet (blue) for anatomic reference. TH-positive cells were counted using an unbiased stereology method and cell survival was plotted as percentage of control.
(§2) Mice were acclimatized for 7 days before the start of the experiment and were randomly divided into 4 experimental groups (I-IV). Control group I was injected with saline and groups II-IV with MPTP (5×25 mg/kg). Mice in groups I and II were drinking regular water throughout the duration of the experiment. […] At the conclusion of the experiment (D28), all mice were sacrificed and brains were collected for immunohistochemistry, stereology, and biochemistry. Brains were fixed and immunostained with rabbit polyclonal anti-tyrosine hydroxylase antibody and counterstained with cresyl violet. Images were captured on an Olympus microscope equipped with Microcast 3CCD 1080p HD color camera.

[2] = test system: TH-positive neurons in SNpc; assay: MPTP-induced neurodegeneration in mice: stereological count of TH-positive neurons in SNpc
Method: as §1
Mice were acclimatized for 7 days before the start of the experiment and were randomly divided into 3 experimental groups (I-III). Groups I and II were given regular water throughout the duration of the experiment. […] Groups II and III received 5 daily intraperitoneal injections of MPTP (25 mg/kg/injection) whereas, group I was injected with saline. At the conclusion of the experiment on D28, all animals were sacrificed and brain tissue was collected for immunohistochemistry, sterology, and Western blot.
Mice were acclimatized to the new environment for 7 days before the start of the experiment and were randomly divided into 3 experimental groups (I-III). Control group I was injected with saline and groups II and III received 5 daily MPTP injections (25 mg/kg/injection). […] The supplementation continued until the conclusion of the experiment on D28.
At the conclusion of the experiment on day 28 (D28), all mice were sacrificed and brains were collected for immunohistochemistry and stereology. Brains were fixed and immunostained with rabbit polyclonal anti-tyrosine hydroxylase antibody (brown) and counterstained with cresyl violet (blue) for anatomic reference. Images were captured on an Olympus microscope equipped with Microcast 3CCD 1080p HD color camera system.
as §2
Mice were acclimatized to the new environment and were randomly divided into 4 experimental groups (I, II, V, and VI).

MPTP-treated mice = assay: Beam walk test (faults) in MPTP-treated mice; conditions: MPTP alone (group II), D10
Method: As an additional step, the beam walk test, described above, was used to assess motor skills. The handling and training of mice on the test apparatus were performed before the MPTP injections. Mice were acclimatized to the new environment for 7 days (D[-21]-D[-14]) before the handling (D[-14]-D[-7]) and training (D[-7]-D1). Animals were randomly divided into 3 experimental groups (I-III). […] Animals were allowed to cross a 5-mm square and a 100-cm long beam and the number of faults, as well as the time taken to walk the beam, were recorded.

rats exposed to PQ = assay: Horizontal beam-walking test (leg slips) in PQ-treated rats; format: in vivo, rat; conditions: PQ alone (PQ3), 1st test phase, p<0.05
Method: Deficiency in motor function is a hallmark of PD. Motor skills of the rats treated in Example 2 were assessed using the beam walk test. All rats were assessed for performance on a horizontal beam-walking test for motor skills/motor deficits as measured by leg slips. The aluminium beam was 1.68 metres in length, 2 centimetres in width and 0.75 metres from the ground. A mirror was placed behind the beam, measuring 1.78 metres in length and 0.3 metres in height. Four weeks after the last injection, rats underwent one trial per day for four consecutive days (one training trial and three test trials). Eight weeks after the last injection another three test trials were performed (one trial per day). In the training trial, rats ran down the beam to the holding cage on a flat platform three times, each time with different distances between the holding cage and starting position. The first position was a quarter of the beam length, the second was half, and the last was the entire distance of the beam. […]
Rats received a small slice of apple in the holding cage located on a table at the end of the beam. […] The test trials were recorded using a standard video camera, located 2 metres perpendicular to the beam. The number of hind leg slips made from either leg during each test trial was later noted from viewing the recorded video clips. […]

TH-positive neurons = assay: PQ-induced neurodegeneration in rats: stereological count of TH-positive neurons in midbrain sections; format: in vivo, Long Evans Hooded rats; conditions: for total number of TH positive neurons: mean ± SD
Method: Long Evans Hooded rats were given 5 intraperitoneal injections of PQ at a dose of 10 mg/kg body weight/injection dissolved in phosphate buffered saline (PBS), one injection every five days over a period of 20 days. Control rats received intraperitoneal injections of PBS alone. Brain tissue was examined immediately after the last PQ injection and, subsequently, 4 weeks and 8 weeks later. […] Fresh drinking solutions were provided every second day. At the conclusion of experimental treatments, rats were perfused with Tyrodes buffer containing heparin, the tissues were fixed with 10% formalin, and the brains extracted and stored in the 10% formalin until processing for immunohistochemistry. Animals were sacrificed at different time points for up to 8 weeks post-PQ exposure. Midbrain sections were prepared, immunostained with anti-tyrosine hydroxylase antibody and TH-positive neurons were counted using a stereologer in an unbiased manner.
The Ubisol-Q10 intervention was applied after the completion of PQ injections described above. By this time, neurodegenerative processes in the brain had already begun. […] This treatment began when nearly 18% of SN neurons were already lost (PQ1 group), but the question was whether the remaining vulnerable neurons could be saved. The midbrain sections were immunostained with anti-TH antibodies, and the stained neurons were counted using a stereologer in an unbiased manner.
There was also significant neuroprotection in the rats that received the Ubisol-Q10 supplemented drinking water for eight weeks post injections.

[3] = vitamin E alone; cited from earlier work

COC1=C(OC)C(=O)C(CC=C(C)CCC=C(C)CCC=C(C)CCC=C(C)CCC=C(C)CCC=C(C)CCC=C(C)CCC=C(C)CCC=C(C)CCC=C(C)C)=C(C)C1=O [CoQ10, 2,3-dimethoxy, 5-methyl, 6-polyisoprene para-benzoquinone]
behaviour in water [1]: floats on the surface as insoluble material | clinical benefit against PD (PD patients): no clinical benefit

CN1CC=C(c2ccccc2)CC1 [MPTP, 1-methyl-4-phenyl-1,2,3,6-tetrahydropyridine]
striatal dopamine level reduced to (striatal dopamine; MPTP alone (group II), by D28): 50% | striatal dopamine level (striatal dopamine; MPTP alone, D28 (Table 7)): 15.1 ± 2.2 | decrease of striatal dopamine content (striatal dopamine; MPTP alone, by day 28): ~50% | loss of TH-positive neurons ([2]; MPTP alone (5 x 25 mg/kg i.p.), day 28): 51.6% and 50% | number of tyrosine hydroxylase-positive neurons, mean ([2]; MPTP alone (Table 9; control = 100)): 66 | surviving TH neurons (percentage of control) ([2]; MPTP alone, D28 (Table 5)): 50.3 ± 7.3% | survival of TH-positive neurons ([2]; MPTP alone, day 45): 50% | number of TH-positive neurons in SNpc ([2]; MPTP alone, regular water, D28 (Table 6)): 3281 ± 291 and 3320 ± 700 | number of TH positive neurons in SNpc ([2]; MPTP alone, regular water, D56): 4192 ± 295 | number of faults on beam walk, average (MPTP-treated mice): ~7 faults

C[n+]1ccc(-c2cc[n+](C)cc2)cc1 [PQ, paraquat]
number of leg slips versus the other three groups (rats exposed to PQ): significantly greater | total number of TH positive neurons (TH-positive neurons; PQ alone (5 x 10 mg/kg i.p.), 0 weeks after last PQ injection (PQ1)): 8722 ± 3559 | loss of DA (TH-positive) neurons versus control (TH-positive neurons; PQ alone, during the PQ injection period (PQ1)): ~18% and ~15% | total number of TH positive neurons (TH-positive neurons; PQ alone, regular water, 4 weeks after PQ injections (PQ2)): 6006 ± 1928 and 6227 ± 1682 | total number of TH positive neurons (TH-positive neurons; PQ alone, regular water, 8 weeks after PQ injections (PQ3)): 5114 ± 1562 and 4661 ± 1097

Cc1c(C)c2c(c(C)c1O)CC[C@@](C)(CCC[C@H](C)CCC[C@H](C)CCCC(C)C)O2 [vitamin E, α-tocopherol]
effect on neuroprotection [3]: did not have a significant effect

polyoxyethanyl-cholesteryl sebacate [PCS]
number of tyrosine hydroxylase-positive neurons, mean ([2]; in drinking water from 2 weeks before to 3 weeks after MPTP injections (Table 9; control = 100)): 58
